According to PubChem BioAssay AID2060619 (Molecular Pharmacology Branch, DTP, NCI, 2025):
pIC50: −log10 of the molar value.

Tested on: 323965-272-R-J2-PDC complex spheroid viability
Test: Anticancer human tumor 323965-272-R-J2-PDC patient-derived pancreatic carcinoma cell line growth inhibition [CLK]
Details: for pIC50: curve of first compound; for viability, T/C: stronger effect = lower value
Method in brief: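 Patient-derived tumor cells grown as complex spheroids with HUVEC endothelial cells and mesenchymal stem cells, treated with drug combinations. Concentrations descend in half-log steps from near clinical Cmax, or from 10 microM if Cmax unknown.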

[1] = second compound 0.0316 µM, first compound 0.0316 µM
[2] = second compound 0.0316 µM, first compound 0.1 µM
[3] = second compound 0.0316 µM, first compound 0.316 µM
[4] = second compound 0.0316 µM, first compound 1 µM
[5] = second compound 0.1 µM, first compound 0.0316 µM
[6] = second compound 0.1 µM, first compound 0.1 µM
[7] = second compound 0.1 µM, first compound 0.316 µM
[8] = second compound 0.1 µM, first compound 1 µM
[9] = second compound 0.316 µM, first compound 0.0316 µM
[10] = second compound 0.316 µM, first compound 0.1 µM
[11] = second compound 0.316 µM, first compound 0.316 µM
[12] = second compound 0.316 µM, first compound 1 µM
[13] = second compound 1 µM, first compound 0.0316 µM
[14] = second compound 1 µM, first compound 0.1 µM
[15] = second compound 1 µM, first compound 0.316 µM
[16] = second compound 1 µM, first compound 1 µM
[17] = second compound 3.16 µM, first compound 0.0316 µM
[18] = second compound 3.16 µM, first compound 0.1 µM
[19] = second compound 3.16 µM, first compound 0.316 µM
[20] = second compound 3.16 µM, first compound 1 µM
[21] = second compound 10 µM, first compound 0.0316 µM
[22] = second compound 10 µM, first compound 0.1 µM
[23] = second compound 10 µM, first compound 0.316 µM
[24] = second compound 10 µM, first compound 1 µM
[25] = second compound 0.0316 µM, first compound 3.16 µM
[26] = second compound 0.0316 µM, first compound 10 µM
[27] = second compound 0.1 µM, first compound 3.16 µM
[28] = second compound 0.1 µM, first compound 10 µM
[29] = second compound 0.316 µM, first compound 3.16 µM
[30] = second compound 0.316 µM, first compound 10 µM
[31] = second compound 1 µM, first compound 3.16 µM
[32] = second compound 1 µM, first compound 10 µM
[33] = second compound 3.16 µM, first compound 3.16 µM
[34] = second compound 3.16 µM, first compound 10 µM
[35] = second compound 10 µM, first compound 3.16 µM
[36] = second compound 10 µM, first compound 10 µM
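Further: spheroids exposed to agents for seven days before readout.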
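Wherever viability, T/C is given: percent of DMSO vehicle control wells so 100% = untreated growth.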

CCN1CCN(Cc2ccc(Nc3ncc(F)c(-c4cc(F)c5nc(C)n(C(C)C)c5c4)n3)nc2)CC1 + CN1CCN(c2cc(C(=O)Nc3cc4cc(-c5cnn(C)c5)ccc4cn3)ccn2)CC1
pIC50 (second compound 0.0316 µM): < 6.00
pIC50 (second compound 0.1 µM): < 6.00
pIC50 (second compound 0.316 µM): > 8.50
pIC50 (second compound 1 µM): > 8.50
pIC50 (second compound 3.16 µM): > 8.50
pIC50 (second compound 10 µM): > 8.50
viability, T/C (second compound 0.0316 µM, first compound 0.00316 µM): 93.6%
viability, T/C (second compound 0.0316 µM, first compound 0.01 µM): 96.1%
viability, T/C [1]: 78.2%
viability, T/C [2]: 73.1%
viability, T/C [3]: 65.2%
viability, T/C [4]: 76.1%
viability, T/C (second compound 0.1 µM, first compound 0.00316 µM): 68.6%
viability, T/C (second compound 0.1 µM, first compound 0.01 µM): 67.8%
viability, T/C [5]: 62.6%
viability, T/C [6]: 60.2%
viability, T/C [7]: 59.7%
viability, T/C [8]: 58.9%
viability, T/C (second compound 0.316 µM, first compound 0.00316 µM): 23.3%
viability, T/C (second compound 0.316 µM, first compound 0.01 µM): 24.5%
viability, T/C [9]: 25.5%
viability, T/C [10]: 27.9%
viability, T/C [11]: 29.6%
viability, T/C [12]: 39.9%
viability, T/C (second compound 1 µM, first compound 0.00316 µM): 3.56%
viability, T/C (second compound 1 µM, first compound 0.01 µM): 3.73%
viability, T/C [13]: 3.71%
viability, T/C [14]: 3.79%
viability, T/C [15]: 7.89%
viability, T/C [16]: 9.9%
viability, T/C (second compound 3.16 µM, first compound 0.00316 µM): 3.02%
viability, T/C (second compound 3.16 µM, first compound 0.01 µM): 5.31%
viability, T/C [17]: 3.88%
viability, T/C [18]: 3.9%
viability, T/C [19]: 4.69%
viability, T/C [20]: 6.79%
viability, T/C (second compound 10 µM, first compound 0.00316 µM): 3.83%
viability, T/C (second compound 10 µM, first compound 0.01 µM): 4.01%
viability, T/C [21]: 4.24%
viability, T/C [22]: 3.37%
viability, T/C [23]: 4.88%
viability, T/C [24]: 5.11%

CC1(C)CCC(CN2CCN(c3ccc(C(=O)NS(=O)(=O)c4ccc(NCC5CCOCC5)c([N+](=O)[O-])c4)c(Oc4cnc5[nH]ccc5c4)c3)CC2)=C(c2ccc(Cl)cc2)C1 + CNC(=O)c1ccc(Nc2nc(OC3CCCC3)c3c(-c4ccc5nc(C)oc5c4)c[nH]c3n2)c(OC)c1
pIC50 (second compound 0.0316 µM): 5.26
pIC50 (second compound 0.1 µM): 5.38
pIC50 (second compound 0.316 µM): 5.64
pIC50 (second compound 1 µM): > 7.50
pIC50 (second compound 3.16 µM): > 7.50
pIC50 (second compound 10 µM): > 7.50
viability, T/C [1]: 102%
viability, T/C [2]: 93.4%
viability, T/C [3]: 98.7%
viability, T/C [4]: 93%
viability, T/C [25]: 89.9%
viability, T/C [26]: 8.02%
viability, T/C [5]: 87.4%
viability, T/C [6]: 94.4%
viability, T/C [7]: 78.8%
viability, T/C [8]: 80.2%
viability, T/C [27]: 65.6%
viability, T/C [28]: 7.13%
viability, T/C [9]: 67.7%
viability, T/C [10]: 69%
viability, T/C [11]: 64.7%
viability, T/C [12]: 58.7%
viability, T/C [29]: 47.3%
viability, T/C [30]: 7.29%
viability, T/C [13]: 44.1%
viability, T/C [14]: 45.9%
viability, T/C [15]: 45.2%
viability, T/C [16]: 42%
viability, T/C [31]: 36.1%
viability, T/C [32]: 7.06%
viability, T/C [17]: 39.5%
viability, T/C [18]: 41.8%
viability, T/C [19]: 43.5%
viability, T/C [20]: 36.1%
viability, T/C [33]: 37%
viability, T/C [34]: 7.39%
viability, T/C [21]: 36.7%
viability, T/C [22]: 36.2%
viability, T/C [23]: 41.5%
viability, T/C [24]: 33.7%
viability, T/C [35]: 32.6%
viability, T/C [36]: 8.69%

O=c1[nH]cc(F)c(=O)[nH]1 + CNC(=O)c1ccc(Nc2nc(OC3CCCC3)c3c(-c4ccc5nc(C)oc5c4)c[nH]c3n2)c(OC)c1
pIC50 (second compound 0.0316 µM): < 5.00
pIC50 (second compound 0.1 µM): < 5.00
pIC50 (second compound 0.316 µM): 5.72
pIC50 (second compound 1 µM): > 7.50
pIC50 (second compound 3.16 µM): > 7.50
pIC50 (second compound 10 µM): > 7.50
viability, T/C [1]: 84.2%
viability, T/C [2]: 91.9%
viability, T/C [3]: 110%
viability, T/C [4]: 91.4%
viability, T/C [25]: 73.8%
viability, T/C [26]: 55.4%
viability, T/C [5]: 85.1%
viability, T/C [6]: 80.5%
viability, T/C [7]: 72.4%
viability, T/C [8]: 65.6%
viability, T/C [27]: 57.3%
viability, T/C [28]: 53.1%
viability, T/C [9]: 59.2%
viability, T/C [10]: 59.9%
viability, T/C [11]: 57.8%
viability, T/C [12]: 48.3%
viability, T/C [29]: 50.6%
viability, T/C [30]: 41.6%
viability, T/C [13]: 43.9%
viability, T/C [14]: 41.1%
viability, T/C [15]: 48.1%
viability, T/C [16]: 38.2%
viability, T/C [31]: 34.7%
viability, T/C [32]: 29.3%
viability, T/C [17]: 40.6%
viability, T/C [18]: 36.8%
viability, T/C [19]: 37.4%
viability, T/C [20]: 36.9%
viability, T/C [33]: 29.5%
viability, T/C [34]: 27.2%
viability, T/C [21]: 37.8%
viability, T/C [22]: 42.7%
viability, T/C [23]: 38.9%
viability, T/C [24]: 37.6%
viability, T/C [35]: 31.4%
viability, T/C [36]: 31.3%

COC1C=CCC(C)C(C)S(=O)(=O)NC(=O)c2ccc3c(c2)N(CC2CCC21)CC1(CCCc2cc(Cl)ccc21)CO3 (stereo not drawn) + CN1CCN(c2cc(C(=O)Nc3cc4cc(-c5cnn(C)c5)ccc4cn3)ccn2)CC1
pIC50 (second compound 0.0316 µM): 6.08
pIC50 (second compound 0.1 µM): 6.34
pIC50 (second compound 0.316 µM): > 7.50
pIC50 (second compound 1 µM): > 7.50
pIC50 (second compound 3.16 µM): > 7.50
pIC50 (second compound 10 µM): > 7.50
viability, T/C [1]: 97.8%
viability, T/C [2]: 92.1%
viability, T/C [3]: 62%
viability, T/C [4]: 47.8%
viability, T/C [25]: 30%
viability, T/C [26]: 12.3%
viability, T/C [5]: 72.5%
viability, T/C [6]: 67%
viability, T/C [7]: 53.5%
viability, T/C [8]: 39.1%
viability, T/C [27]: 28.9%
viability, T/C [28]: 10.4%
viability, T/C [9]: 27.5%
viability, T/C [10]: 26.2%
viability, T/C [11]: 21.1%
viability, T/C [12]: 17.7%
viability, T/C [29]: 15.1%
viability, T/C [30]: 9.86%
viability, T/C [13]: 3.35%
viability, T/C [14]: 4.19%
viability, T/C [15]: 4.18%
viability, T/C [16]: 3.31%
viability, T/C [31]: 1.96%
viability, T/C [32]: 2.43%
viability, T/C [17]: 3.51%
viability, T/C [18]: 3.78%
viability, T/C [19]: 3.33%
viability, T/C [20]: 3.25%
viability, T/C [33]: 2.59%
viability, T/C [34]: 2.44%
viability, T/C [21]: 5.25%
viability, T/C [22]: 3.97%
viability, T/C [23]: 3.84%
viability, T/C [24]: 3.47%
viability, T/C [35]: 2.83%
viability, T/C [36]: 2.37%
